Experimental data taken from patent US10769242B2, “System and method for data mining very large drugs and clinical effects databases” (Cincinnati Children's Hospital Medical Center, priority 2015, dated 2020).

Assay: AERSMine mining of FAERS reports: lithium toxicity and inversely correlated drugs
Set-up: species or system patients
Details: for safety signal IC for lithium-specific neurological adverse events: human
Description: To establish lithium-adverse event correlation, AERSMine uses multiple quantitative elements such as AE incidence rate, multiple hypothesis testing, relative risk, and safety signals. For this example, the following analytical parameters were used: total reports per adverse event were set to ≥2,000; adverse event and lithium intake co-reported in at least 10 reports; RR set to ≥2; FDR-corrected p-value of <0.001 (Benjamini and Hochberg); and safety signal (i.e., IC) set to >0.
Additionally, by excluding patients with comorbidities (e.g., diabetes) reported to worsen mental health and exacerbate neurological symptoms from the analysis, allows AERSMine to accurately represent potentially lithium-specific adverse events (e.g., aggression, irritability, anger, suicidal tendencies, tremors, and other neurological symptoms, movement disorders, personality changes, etc.). The inventors then sought to determine if AERSMine could identify drugs that are inversely correlated with these adverse events, which may indicate a potential reduction in risk and represent a novel combinatorial strategy to mitigate lithium-related toxicity. […] (no concomitant use with lithium, IC<0, i.e., number of observed events<expected, FDR-corrected p<0.001). To understand how the risks differ across these therapeutic agents, AERSMine additionally allows comparative analyses across multiple drugs or therapeutic classes, which show the differential effects across the inversely correlated drugs.

With `CCCCC(=O)N(Cc1ccc(-c2ccccc2-c2nnn[nH]2)cc1)[C@H](C(=O)O)C(C)C` [valsartan] the “safety signal IC for lithium-specific neurological adverse events” value was < 0.
With `[Li]` [lithium] the “number of adverse events significantly correlated with lithium use” value (of 4,180 adverse events in 22,575 patient reports, RR>=2, FDR p<0.001, IC>0) was 327 adverse events.
In the case of `CCCCc1nc(Cl)c(CO)n1Cc1ccc(-c2ccccc2-c2nn[nH]n2)cc1` [losartan], the “safety signal IC for lithium-specific neurological adverse events” value is reported as < 0.
